Measurements reported in ChEMBL document CHEMBL1201862, “PubChem BioAssay data set” (2004).
One block for each molecule: values may come before it. Calls of active or inactive are those of the source.

What was measured:
Kallikrein-7 = Kallikrein-7 (Homo sapiens, UniProt P49862); assay: Fluorescence Intensity-based biochemical primary high throughput dose response assay to identify activators of kallikrein-7 (K7) zymogen.
[1] = potency of ADAM10 substrate cleavage blockers – biochemical, QFRET, dose response (AID 743254);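 further: ADAM10 enzyme with the DM2 quenched FRET peptide as substrate; EDANS fluorescence gain as the protease cuts the substrate; inhibitor potency against ADAM10 proteolytic activity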
[2] = target: Disintegrin and metalloproteinase domain-containing protein 17 (Homo sapiens, UniProt P78536); assay: inhibition of ADAM17 substrate cleavage – biochemical, quenched FRET substrate, counter-screen for ADAM10 exosite inhibitor project, dose response (AID 743253)
Sequence of Disintegrin and metalloproteinase domain-containing protein 17 (P78536 whole entry, the tested form may be a part): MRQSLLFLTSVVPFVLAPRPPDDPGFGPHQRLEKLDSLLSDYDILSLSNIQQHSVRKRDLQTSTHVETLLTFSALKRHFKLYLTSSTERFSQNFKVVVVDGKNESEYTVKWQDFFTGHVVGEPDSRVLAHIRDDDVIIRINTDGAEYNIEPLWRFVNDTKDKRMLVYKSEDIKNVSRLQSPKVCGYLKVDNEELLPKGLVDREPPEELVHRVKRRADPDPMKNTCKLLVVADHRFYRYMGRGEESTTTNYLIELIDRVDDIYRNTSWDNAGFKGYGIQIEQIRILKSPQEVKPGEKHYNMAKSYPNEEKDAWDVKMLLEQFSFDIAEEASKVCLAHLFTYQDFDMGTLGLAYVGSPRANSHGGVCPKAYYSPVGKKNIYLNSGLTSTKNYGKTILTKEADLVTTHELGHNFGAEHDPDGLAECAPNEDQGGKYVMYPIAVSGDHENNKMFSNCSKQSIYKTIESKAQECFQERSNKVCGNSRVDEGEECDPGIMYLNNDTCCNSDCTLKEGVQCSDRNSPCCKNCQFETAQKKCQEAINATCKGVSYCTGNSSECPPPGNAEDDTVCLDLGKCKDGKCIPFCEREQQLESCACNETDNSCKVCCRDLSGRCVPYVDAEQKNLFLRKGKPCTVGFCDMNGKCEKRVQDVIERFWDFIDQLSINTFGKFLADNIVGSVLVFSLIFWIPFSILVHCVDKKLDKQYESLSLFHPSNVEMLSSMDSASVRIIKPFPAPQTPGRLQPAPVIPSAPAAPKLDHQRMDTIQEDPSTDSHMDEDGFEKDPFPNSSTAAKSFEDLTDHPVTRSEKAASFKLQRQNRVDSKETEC

[3] = target: G-protein coupled receptor 183 (Homo sapiens, UniProt P32249); assay: SAR confirmation of small molecule antagonists of the EBI2 receptor via a luminescent beta-arrestin assa.; type: functional
Sequence of G-protein coupled receptor 183 (P32249 whole entry): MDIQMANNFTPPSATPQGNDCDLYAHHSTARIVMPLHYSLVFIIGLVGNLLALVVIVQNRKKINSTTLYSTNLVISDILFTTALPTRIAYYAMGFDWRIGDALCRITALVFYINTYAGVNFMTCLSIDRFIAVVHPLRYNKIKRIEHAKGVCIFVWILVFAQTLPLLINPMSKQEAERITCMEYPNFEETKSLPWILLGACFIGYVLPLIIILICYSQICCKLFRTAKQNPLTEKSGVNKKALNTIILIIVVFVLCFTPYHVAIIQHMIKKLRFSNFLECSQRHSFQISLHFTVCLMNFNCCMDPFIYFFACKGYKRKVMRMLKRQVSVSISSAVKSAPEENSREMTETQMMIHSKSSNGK

[4] = reduction of Shn3 3'UTR-driven luciferase in osteoblasts – cell-based, Clone20 osteoblasts, firefly luciferase, cherry-picked, dose response (AID 624132); type: functional;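 further: firefly luciferase luminescence from reporter carrying the Shn3 3'UTR in osteoblasts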
[5] = Shn3 3'UTR reporter signal decrease – cell-based, Clone20 osteoblasts, firefly luciferase, cherry-pick, set 2, Schnurri-3 inhibitor project, dose response (AID 720490); type: functional;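 further: actives lower the luminescence signal as inhibitors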
[6] = loss of viability in HepG2 cells – cell-based, CellTiter-Glo, cherry-picked, cytotoxicity control for Shn3 inhibitor project, dose response (AID 624134); type: functional
[7] = EF1alpha-driven Renilla reporter with control 3'UTR suppression – Clone20-Shn3RL cells, dual-Glo, cherry-pick, set 2, counter-screen for Shn3 3'UTR targeting project, dose response (AID 720724); type: functional, cell-based; settings: Dual-Go Shn3RL
[8] = non-specific 3'UTR reporter inhibition in Clone20-Shn3RL – cell-based, Renilla luciferase, cherry-picked, counter-screen for Shn3 inhibitor project, dose response (AID 624133); type: functional
[9] = target: T1, Oxysterols receptor LXR-beta (Homo sapiens, UniProt P55055); type: functional, cell-based
T1 sequence (P55055 whole entry): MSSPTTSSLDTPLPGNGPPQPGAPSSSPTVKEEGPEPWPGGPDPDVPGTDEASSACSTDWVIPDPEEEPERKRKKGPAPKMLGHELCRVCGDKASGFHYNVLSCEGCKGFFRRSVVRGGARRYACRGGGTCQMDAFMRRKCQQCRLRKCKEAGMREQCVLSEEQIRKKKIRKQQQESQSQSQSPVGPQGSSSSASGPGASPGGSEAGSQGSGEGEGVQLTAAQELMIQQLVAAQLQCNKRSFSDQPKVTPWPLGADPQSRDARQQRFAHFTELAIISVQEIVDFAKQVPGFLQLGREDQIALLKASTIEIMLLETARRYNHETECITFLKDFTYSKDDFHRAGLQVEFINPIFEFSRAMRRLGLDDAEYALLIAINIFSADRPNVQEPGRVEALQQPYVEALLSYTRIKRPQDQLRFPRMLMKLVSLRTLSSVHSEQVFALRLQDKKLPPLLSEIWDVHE

[10] = Dd2 parasite growth inhibition in erythrocytes – SYBR Green, dry powder samples, set 9, dose response (AID 1159568); type: functional, cell-based
[11] = Fluorescence-based cell-based high throughput dose response assay for inhibitors of the interaction of nucleotide-binding oligomerization domain containing 2 (NOD2) and the receptor-interacting serine-threonine kinase 2 (RIPK2).; type: functional; settings: Homo sapiens
Beta Lactamase = Beta Lactamase (Pseudomonas aeruginosa, UniProt Q932Y6); assay: BLA reporter interference, concentration series – BLA reporter cells, FRET fluorescence, artefact control for NOD2-RIPK2 interaction inhibitor project, dose response (AID 651552); type: functional, cell-based
Sequence of Beta Lactamase (Q932Y6 whole entry): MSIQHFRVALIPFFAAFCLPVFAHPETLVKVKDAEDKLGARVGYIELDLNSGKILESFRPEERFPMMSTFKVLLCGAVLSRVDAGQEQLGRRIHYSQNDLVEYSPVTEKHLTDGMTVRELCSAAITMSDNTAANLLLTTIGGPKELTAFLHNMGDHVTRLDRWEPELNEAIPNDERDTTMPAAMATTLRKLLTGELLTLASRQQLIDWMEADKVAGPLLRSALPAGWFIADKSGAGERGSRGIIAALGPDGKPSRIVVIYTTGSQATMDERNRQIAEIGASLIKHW

[12] = target: T1, Oxysterols receptor LXR-beta; type: functional, cell-based; remark: listed apart in the source
[13] = bead-based luminescence quenchers, dual-tagged ARNT – biochemical, AlphaScreen, cherry-pick, artefact control for ARNT-TACC3 interaction inhibitor project, dose response (AID 651705); type: functional;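 further: AlphaScreen bead proximity signal that flags compounds interfering with the detection technology; potency reflects signal decrease which marks the compound as an assay artifact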
[14] = Luminescence Cell-Based Dose Retest to Confirm Inhibitors of Cancer Stem Cells. [Related pubchem assays (depositor defined):AID2717, AID2721]; type: functional; settings: Homo sapiens
[15] = target: COUP transcription factor 2 (Homo sapiens, UniProt P24468); assay: Luminescence-based cell-based high throughput dose response assay to identify inhibitors of COUP-TFII (NR2F2).; type: functional;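 further: HEK293 cells transiently cotransfected with COUP-TFII expression vector and reporter; luciferase reporter luminescence driven by COUP-TFII from the pX2-168 reporter plasmid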
Sequence of COUP transcription factor 2 (P24468 whole entry): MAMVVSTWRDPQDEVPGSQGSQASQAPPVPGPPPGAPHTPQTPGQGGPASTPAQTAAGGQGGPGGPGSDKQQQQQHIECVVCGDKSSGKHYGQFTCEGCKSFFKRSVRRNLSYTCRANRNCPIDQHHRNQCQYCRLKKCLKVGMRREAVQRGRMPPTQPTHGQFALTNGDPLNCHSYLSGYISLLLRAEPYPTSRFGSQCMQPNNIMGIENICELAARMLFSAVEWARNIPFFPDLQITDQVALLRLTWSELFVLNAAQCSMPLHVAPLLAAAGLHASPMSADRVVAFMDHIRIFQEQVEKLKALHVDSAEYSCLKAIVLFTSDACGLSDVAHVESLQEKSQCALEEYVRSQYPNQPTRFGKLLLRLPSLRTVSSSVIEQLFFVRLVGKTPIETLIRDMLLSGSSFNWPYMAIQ

INS1 = assay: INS-1E survival protection against cytokine death – cell-based, luminescence, retest, dose response (AID 449756); type: functional; settings: Rattus norvegicus;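 further: cell death triggered by IL-1 beta plus TNF-alpha plus IFN-gamma mixture; protective hits raise ATP signal compared with cytokine alone wells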
Streptococcus = assay: GAS UMAA2166 growth inhibition – luminescence, BacTiterGlo, counter-screen for streptokinase expression inhibitor project, dose response (AID 1915); type: functional, organism-based;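 further: potency for reduction of bacterial viability or growth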
[16] = tested on: Streptococcus sp. 'group A'; assay: Streptococcus pyogenes SK(-)GAS viability under kanamycin – luminescence, BacTiterGlo, confirmation, counter-screen for streptokinase expression inhibitor project, dose response (AID 1900); type: functional, organism-based
Interleukin-8 = Interleukin-8 (Homo sapiens, UniProt P10145); assay: Dose Response confirmation of uHTS small molecule hits for cystic fibrosis induced NFkb Inhibitors in a PAF-induced IL8 counterscreen.; type: functional; settings: read-out: IC50_Mean
Sequence of Interleukin-8 (P10145 whole entry): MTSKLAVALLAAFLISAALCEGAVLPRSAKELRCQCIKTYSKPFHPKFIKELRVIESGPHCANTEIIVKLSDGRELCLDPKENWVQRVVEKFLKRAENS

Sequence of Kallikrein-7 (P49862 whole entry): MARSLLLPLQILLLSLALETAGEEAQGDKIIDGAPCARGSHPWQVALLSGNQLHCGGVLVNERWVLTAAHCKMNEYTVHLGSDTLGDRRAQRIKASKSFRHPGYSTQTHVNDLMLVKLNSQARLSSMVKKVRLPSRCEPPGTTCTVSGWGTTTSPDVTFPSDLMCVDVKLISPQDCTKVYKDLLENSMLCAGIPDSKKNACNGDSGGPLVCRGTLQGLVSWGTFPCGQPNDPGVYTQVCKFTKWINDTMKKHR

EC50 (Kallikrein-7): 33.2 µM (inactive)
Structure (SMILES): CCOC(=O)c1cnn2c(C(F)(F)F)cc(-c3cn(C)nc3C)nc12

IC50 [1]: > 69.6 µM (inactive)
IC50 [2]: > 69.6 µM (inactive)
Structure (SMILES): Cc1ccc(S(=O)(=O)N2CCC(=O)N2)cc1

IC50 [3]: 0.0143 µM (active)
Structure (SMILES): O=C(/C=C/c1ccc(Cl)c(Cl)c1)N1CCN(Cc2ccc(Cl)cc2)CC1

Structure (SMILES): CC(C)c1nc(SCC(=O)Nc2cccc(C(F)(F)F)c2)c2c(=O)n(C)c(=O)n(C)c2n1
AC50 [4]: 2.7 µM (active)
AC50 [5]: 2.54 µM (active)
AC50 [6]: > 70 µM (inactive)
AC50 [7]: 3.53 µM (active)
AC50 [8]: 13.2 µM (active)

EC50 [9]: > 67.6 µM (inactive)
Structure (SMILES): Cc1cc2nc(-c3cccnc3SCC(=O)NCc3ccco3)[nH]c2cc1C

Structure (SMILES): CCc1csc(N2[C@H](CO)[C@H](c3ccccc3)[C@@H]2CNC)n1
AC50 [10]: 7.33 µM (active)

Structure (SMILES): O=C1N/C(=C/c2ccc(N3CCOCC3)o2)C(=O)N1c1cccc(Cl)c1
IC50 [11]: 7.65 µM (active)
IC50 (Beta Lactamase): 21.3 µM (inactive)

Structure (SMILES): O=[N+]([O-])c1cccc(/N=C/C=C(\O)c2cccs2)c1
EC50 (cells): > 67.5 µM (inactive)
EC50 [12]: > 67.5 µM (inactive)

Structure (SMILES): O=C(NC12CC3CC(CC(C3)C1)C2)c1ccc(-c2ccccc2Cl)o1
AC50 [13]: 80.2 µM (active)
AC50 [14]: 3.35 µM (active)

Structure (SMILES): CSc1ccc(C2NN=C(c3ccccc3)S2)cc1 (configuration not stated)
EC50 (cells): > 67.6 µM (inactive)
EC50 [12]: > 67.6 µM (inactive)

Structure (SMILES): CCOC(=O)c1cnc(-n2nc(C)cc2C)nc1NC1CCCC1
IC50 [15]: 7.91 µM (active)
AC50 (INS1): 2.73 µM (active)
EC50 (Streptococcus): 5.64 µM (active)
AC50 [4]: 4.4 µM (active)
EC50 [16]: 2.69 µM (active)
AC50 [6]: 8.6 µM (active)
AC50 [8]: 7.1 µM (active)

IC50 (Interleukin-8): 11.3 µM (inactive)
Structure (SMILES): COc1cccc2c(SCC(=O)N/N=C/c3ccccc3)cc(C)nc12
